Reference: patent US9694060B2, “Peptide vaccines based on the EGFRvIII sequence for the treatment of tumors” (The Board of Trustees of the Leland Stanford Junior …, priority 2012, dated 2017)
No end group written: not given here.

Tested on: HC2 20d2/c cells, an NIH-3T3 cell line engineered to overexpress EGFRvIII
Assay: tumor regression / survival experiments in mice bearing EGFRvIII-overexpressing tumors
Type: in vivo, NIH Swiss mice
Conditions: for survival / effectiveness compared with Peptide G:KLH: Table 1 experiments; for survival / effectiveness compared with Peptide G:KLH / percent survival compared with Peptide G:KLH: in words; for percent survival compared with Peptide G:KLH: overall survival data (Table 2)
Description: The conjugated peptide vaccines were tested in tumor regression experiments and survival results were compared among animals treating with one of the conjugated peptide vaccines or KLH only.
Additional experiments were performed repeating the experiments described above.
For all experiments, the peptides were synthesized with the sequence as indicated with the cysteine at the carboxy terminus added for the purposes of conjugation. Peptides were then conjugated at a 1:1 w/w ratio to maleimide activated Keyhole Limpet Hemocyanin (KLH) for 24 hours. Following conjugation, the peptide:KLH conjugate was dialyzed against PBS to remove unconjugated peptide
NIH Swiss mice were inoculated subcutaneously in the right hand flank with 2×10^6 HC2 20d2/c cells, an NIH-3T3 cell line engineered to overexpress EGFRvIII. This cell line has been previously used to study anti-tumor responses to SEQ ID NO:2 conjugated to KLH (Moscatello et al., Cancer Res. 57:1419). On the 7th day following inoculation, mice were immunized with 100 μg of conjugated peptide in 100 μl of PBS emulsified with 100 μl of Freund's complete adjuvant. On the 14th day, mice were immunized with 100 μg of peptide in 100 μl of PBS emulsified with 100 μl of Freund's incomplete adjuvant.

[1] = Table 1, first experiments, s.c. tumor, immunized day 7 and day 14 with 100 μg conjugated peptide in Freund's adjuvant
[2] = Table 2, overall survival data compiled after additional repeat experiments, immunized day 7 and day 14 with 100 μg

Substance | Survival [1] [%] | survival / effectiveness compared with Peptide G:KLH | Survival [2] [%] | percent survival compared with Peptide G:KLH
LEEKKANYVVTDHC:KLH (also: conjugated to KLH, site not given here) [Peptide A: KLH] | 90 | better survival rates | 80 | higher percent survival
LEEKKVNYVVTDHC:KLH (also: conjugated to KLH, site not given here) [Peptide V: KLH] | 70 | better survival rates | 70 | higher percent survival
Keyhole Limpet Hemocyanin [KLH only, reference compound] | 47 |  | 32 | 
LEEKKPNYVVTDHC:KLH (also: conjugated to KLH, site not given here) [Peptide P: KLH] | 70 | better survival rates | 65 | higher percent survival
